According to patent US5175283A, “Azetidin-2-one derivatives as serine protease inhibitors” (Bristol-Myers Squibb Company, priority 1992, dated 1992):
Where “and” joins values, the source holds several entries; their conditions need not be identical. Identical values can stand only once. Counter-ions that a name gives are not always drawn.

How the values were obtained:
[1] = target: T1, bovine pancreatic trypsin (Bos taurus, UniProt P00760); test: Enzyme assay for the inhibition of trypsin (Z-Val-Gly-Arg-pNA substrate); type: biochemical; conditions: 3 min incubation of drug with enzyme, room temperature, pH 8.0; read-out: Trypsin IC50
T1 construct: purified bovine pancreatic trypsin dissolved in trypsin assay buffer
T1 sequence (P00760 24-246): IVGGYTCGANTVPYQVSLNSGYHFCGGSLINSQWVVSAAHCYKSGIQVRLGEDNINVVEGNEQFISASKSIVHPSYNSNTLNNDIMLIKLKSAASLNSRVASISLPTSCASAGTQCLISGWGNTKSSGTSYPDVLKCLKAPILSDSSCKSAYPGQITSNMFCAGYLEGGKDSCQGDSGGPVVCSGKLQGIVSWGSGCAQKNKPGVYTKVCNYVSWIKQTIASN
Description: 2. Enzyme Assays for the Inhibition of Trypsin
(§1) The following reagents were used in these assays:
Trypsin assay buffer: 2 mM CaCl2, 50 mM Tris/Cl pH 8.0.
3 mM Z-Val-Gly-Arg-pNA (Chromzyme TRy) dissolved in H2 O.
6 μg/ml of purified bovine pancreatic trypsin dissolved in trypsin assay buffer.
Inhibitors to be tested were dissolved in H2 O, methanol or DMSO just prior to use.
To each well in a 96-well microtiter plate, 270 μl of assay buffer was added. Bovine trypsin (10 μl of 6 μg/ml) was added. Inhibitor (10 μl ) was added, mixed, and then incubated at room temperature for 3 min. The enzymic reaction was started with 10 μl of 3 mM Z-Val-Gly-Arg-pNA substrate. The change in optical density was measured at 405 nm at room temperature. A kinetic microplate reader (Molecular Devices Corporation Vmax) was used to measure the change in optical density over time.
Results are reported in Table 1 as IC50 values, i.e., the drug concentration in mole/liter which caused 50% inhibition of the enzyme activity (after incubation of the drug with the enzyme for 3 min).

[2] = target: T2, human α-thrombin (Homo sapiens, UniProt P00734); test: Concentration required for doubling thrombin clotting time in human plasma; type: biochemical; conditions: human citrated plasma, 10 U/ml human thrombin; read-out: ED50, drug concentration required to double clotting time
T2 construct: purified human α-thrombin dissolved in thrombin assay buffer
Description: Procedure for Determining the Concentration Required for Doubling Thrombin Clotting Time--Clotting Time Assays The following reagents were used in these assays: Owren's Veronal Buffer: 125 mM NaCl, 28.4 mM sodium barbital, pH 7.35. Human citrated plasma obtained from human volunteers or citrated plasma obtained from IP-dosed animals (prepared as described below). 10 NIH Units/ml human α-thrombin in thrombin buffer for use with human plasma. […] The blood was centrifuged at […] (480×g) for 15 min at room temperature (using a Sorvall RT 6000B centrifuge). The plasma was removed, pooled, and aliquoted into small tubes which were stored frozen for later use. Clotting Time Measurement Clotting times were determined by pipetting 0.1 ml of Owren's buffer (pre-warmed 37° C.) and 0.1 ml of human or rat plasma into yellow sample cuvettes. For studies with human plasma 10 U/ml human thrombin (10 ml) was placed in the reservoir assembly station of the MLA 700. (Medical Laboratory Automation, Electra 700 Reservoir Assembly). For rat studies, the human thrombin concentration was 25 U/ml. The cuvettes were vortexed and then placed on the MLA 700 sample wheel. The coagulation timer (MLA 700) automatically dispenses 0.1 ml human thrombin into the sample in each cuvette. Detection of the fibrin clot was determined optically by the MLA 700. Studies were performed to determine the concentration of drug which caused a doubling of the clotting time in human plasma. From standard curves of thrombin activity added to the sample versus the clotting time, the concentration of drug which caused a doubling of the thrombin clotting time corresponded to inhibition of approximately 1/2 of the added thrombin clotting activity. Results are reported in Table 1 as ED50 values, i.e., the drug concentration required to double clotting time.

[3] = system: Thrombin Induced Clotting Time; test: Thrombin induced clotting time ex vivo in plasma of i.p. dosed rats; conditions: rat, 50 mg/kg i.p.; for Thrombin Induced Clotting Time (1:4 Control Plasma): plasma diluted 1:4 with control plasma; for Thrombin Induced Clotting Time, terminated samples / Thrombin Induced Clotting Time: undiluted plasma, per animal
Description: Procedure for Determining the Concentration Required for Doubling Thrombin Clotting Time--Clotting Time Assays
as §1
Owren's Veronal Buffer: 125 mM NaCl, 28.4 mM sodium barbital, pH 7.35.
Human citrated plasma obtained from human volunteers or citrated plasma obtained from IP-dosed animals (prepared as described below).
25 NIH Units/ml human α-thrombin in thrombin buffer for use with rat plasma.
Test compound was prepared just prior to dosing. Routinely the drugs are dissolved in water. Animals were dosed by i.p. injection.
After the appropriate time period, the animals were ether-anesthetized, and blood was drawn by cardiac puncture using 333 μl of 3.8% sodium citrate per 3 ml blood. After all of the samples were obtained, the tubes were centrifuged at 1,500 rpm for 15 min as described for the human blood samples.
Clotting Time Measurement
Clotting times were determined by pipetting 0.1 ml of Owren's buffer (pre-warmed 37° C.) and 0.1 ml of human or rat plasma into yellow sample cuvettes. For studies with human plasma 10 U/ml human thrombin (10 ml) was placed in the reservoir assembly station of the MLA 700. (Medical Laboratory Automation, Electra 700 Reservoir Assembly). For rat studies, the human thrombin concentration was 25 U/ml. The cuvettes were vortexed and then placed on the MLA 700 sample wheel. The coagulation timer (MLA 700) automatically dispenses 0.1 ml human thrombin into the sample in each cuvette. Detection of the fibrin clot was determined optically by the MLA 700.
In separate studies, two compounds, Compound XIX and Compound XI, were dosed 50 mg/kg I.P. to three rats in each study group. […] "Term" indicates "terminated sample" where a clot was unable to form after approximately 99 seconds. When this occurred, the animal plasma was diluted 1: 1 with control rat plasma and the sample tested again. If need, the animal plasma was diluted 1:4 and tested again.

[4] = target: T2, human α-thrombin; test: Enzyme assay for the inhibition of thrombin (s-2238 substrate); type: biochemical
Description: 1. Enzyme Assays for the Inhibition of Thrombin The following reagents were used in these assays: Thrombin assay buffer: 145 mM NaCl, 5 mM KCl, 30 mM N-2-hydroxyethyl piperazine-N'-2-ethanesulfonic acid, pH 7.4, 1 mg/ml polyethylene glycol (PEG-8000). 3 mM D-Phe-Pip-Arg-p-nitroanilide (s-2238) in H2 O. 3 U/ml purified human α-thrombin dissolved in thrombin assay buffer. Inhibitors to be tested were dissolved in H2 O, methanol, or DMSO just prior to use. Assay Procedure To each well in a 96-well microtiter plate, 270 μl of assay buffer was added. Human α-thrombin (10 μl of 3 U/ml) was added, then 10 μl of inhibitor were added and mixed. The samples were incubated at room temperature for a defined period of time (3 min for initial IC50 determinations). The enzymic reaction was started with 10 μl of 3 mM s-2238 substrate and continued at room temperature. The change in optical density was measured at 405 nm. A kinetic microplate reader (Molecular Devices Corporation Vmax) was used to measure the change in optical density over time. Results are reported in Table 1 as IC50 values, i.e., the drug concentration in mole/liter which caused 50% inhibition of the enzyme activity (after incubation of the drug with the enzyme for 3 min). Alternatively, results are also reported in Table 1 expressed as k2 /ki which is the second order rate constant in per mole per minute for inactivation time of the enzyme [Kitz, et al., J. Biol. Chem., 237, 3245 (1962)].

IC50 [1]: 0.009 µM | IC (2-fold clotting time) [2]: 0.5 µM | IC50 ([4]; 3 min incubation of drug with enzyme, room temperature): 0.09 µM | Thrombin k2 /ki (second order rate constant for inactivation of the enzyme) ([4]; human α-thrombin, s-2238, pH 7.4, room temperature): 4.2 × 10^5 m^-1 min^-1
Compound: CC(=O)N1C(=O)[C@@H](CCCNC(=N)N)[C@@H]1C(=O)N1CCCCC1 (relative stereo) [Compound XI, trans-4-(1-Piperidinocarbonyl)-3-guanidinooropyl-1-acetyl-2azetidinone hydrochloride salt]
Thrombin Induced Clotting Time (1:1 Control Plasma), terminated samples ([3]; 0.5 hr. post dose, plasma diluted 1:1 with control rat plasma): term. ("terminated sample" where a clot was unable to form after approximately 99 seconds) | Thrombin Induced Clotting Time (1:4 Control Plasma) ([3]; 0.5 hr. post dose, hydrochloride salt, 50 mg/kg, in s): 18.0 and 17.7 and 32.4 | Thrombin Induced Clotting Time, terminated samples ([3]; 0.5 hr. post dose): term. ("terminated sample" where a clot was unable to form after approximately 99 seconds) | Thrombin Induced Clotting Time (1:1 Control Plasma) ([3]; 2 hr. post dose, plasma diluted 1:1 with control rat plasma, in s): 45.7 | Thrombin Induced Clotting Time (1:4 Control Plasma) ([3]; 2 hr. post dose, in s): 14.0 | Thrombin Induced Clotting Time, terminated samples ([3]; 2 hr. post dose): term. ("terminated sample" where a clot was unable to form after approximately 99 seconds) | Thrombin Induced Clotting Time ([3]; 2 hr. post dose, hydrochloride salt, 50 mg/kg): 17.2 s and 14.7 s | Thrombin Induced Clotting Time ([3]; 5 hr. post dose, hydrochloride salt, 50 mg/kg): 13.1 s and 11.4 s and 11.5 s | Clotting time ex vivo, result in words ([3]; three rats per group): prolonged clotting time
